Results on eleven molecules are retold here after patent US5440016A, “Peptides of the formula (KFmoc) ZZZ and their uses” (priority 1993, dated 1995).

In brackets after ≈: the same amount, converted by molar mass. Square brackets hold non-standard residues; d marks the D form. Peptide text beside a SMILES is read from it. * marks the point of attachment. Fmoc = O=C(OCC1c2ccccc2-c2ccccc21)*

Series [1] has as its system Human red blood cells (RBCs). The series is described as follows: Hemolytic activity. In kind it is cell-based. To be noted: Tables 18-21.
Series [2] concerns Escherichia coli ATCC 25922. To be noted: Tables 2-5; concentration necessary to inhibit 50% growth.
Description: Escherichia coli ATCC 25922 and P. aeruginosa ATCC 27853 were used as Gram-negative (-) and Staphylococcus aureus ATCC 29213 as Gram-positive (+) bacteria. Bacteria were grown overnight at 37° C. in Mueller-Hinton (MH) broth. This culture was reinoculated and incubated at 37° C. to reach the exponential phase of bacteria growth, i.e., a final bacterial suspension containing 10^5 to 5×10^5 colony-forming units (CFU)/ml. The concentration of cells was established by plating 100 μl of different dilutions of the culture solution (e.g., 10^-2, 10^-3 and 10^-4) onto solid agar plates.
Following an overnight incubation at 37° C., the CFU thus formed were counted on each agar plate. In 96-well tissue culture plates, as control blanks, eight wells per plate contained only medium, while as a positive growth control, eight other wells contained medium plus cells.
The plates were incubated overnight at 37° C., and the optical density (OD) determined at 620 nm after different times of incubation.
Series [3] deals with Staphylococcus aureus ATCC 29213. To be noted: Tables 6-9.
The subject of series [4] is Streptococcus sanguis ATCC 10556. To be noted: Tables 10-13.
For series [5], the system named is Candida albicans ATCC 10231. To be noted: Tables 14-17.

On to `NCCCC[C@H](NC(=O)OCC1c2ccccc2-c2ccccc21)C(=O)N[C@@H](Cc1c[nH]c2ccccc12)C(=O)N[C@@H](CCCCN)C(=O)N[C@H](CO)C(N)=O` [(KFmoc)WKs-NH2] (Fmoc-KWK[dS]-NH2), for which, in series [1], the “HD50 (concentration necessary to lyse 50% of the cells)” value turned out to be 296 µg/mL. Further, in series [2], the “IC50 against E. coli” value came to 57 µg/mL (≈ 74.1 µM). Moreover, the “IC50 against S. aureus” value in series [3] is 6 µg/mL (≈ 7.8 µM). For the same molecule, the “IC50 against S. sanguis” value in series [4] stood at 6 µg/mL (≈ 7.8 µM). Also, in series [5], the “IC50 against C. albicans” value amounted to 214 µg/mL (≈ 278 µM).
As to `C[C@H](O)[C@@H](NC(=O)[C@H](CCCCN)NC(=O)[C@H](Cc1c[nH]c2ccccc12)NC(=O)[C@H](CCCCN)NC(=O)OCC1c2ccccc2-c2ccccc21)C(N)=O` [(KFmoc)WKt-NH2] (Fmoc-KWK[dT]-NH2), the “HD50 (concentration necessary to lyse 50% of the cells)” value in series [1] is 435 µg/mL. In addition, in series [2], the “IC50 against E. coli” value worked out at 55 µg/mL (≈ 70.2 µM). The “IC50 against S. aureus” value in series [3] came to 10 µg/mL (≈ 12.8 µM). Besides, the “IC50 against S. sanguis” value in series [4] amounted to 7 µg/mL (≈ 8.94 µM). Moreover, the “IC50 against C. albicans” value in series [5] turned out to be 292 µg/mL (≈ 373 µM).
The corresponding values for `CC(C)[C@@H](NC(=O)[C@H](CCCCN)NC(=O)[C@H](Cc1c[nH]c2ccccc12)NC(=O)[C@H](CCCCN)NC(=O)OCC1c2ccccc2-c2ccccc21)C(N)=O` [(KFmoc)WKv-NH2] (Fmoc-KWK[dV]-NH2) are 181 µg/mL, 54 µg/mL (≈ 69.1 µM), 9 µg/mL (≈ 11.5 µM), 10 µg/mL (≈ 12.8 µM) and 187 µg/mL (≈ 239 µM).
Regarding `NCCCC[C@H](NC(=O)OCC1c2ccccc2-c2ccccc21)C(=O)N[C@@H](Cc1c[nH]c2ccccc12)C(=O)N[C@@H](CCCCN)C(=O)N[C@H](Cc1c[nH]c2ccccc12)C(N)=O` [(KFmoc)WKw-NH2] (Fmoc-KWK[dW]-NH2), the “HD50 (concentration necessary to lyse 50% of the cells)” value in series [1] was 32 µg/mL. Moreover, in series [2], the “IC50 against E. coli” value came out at 15 µg/mL (≈ 17.3 µM). Besides, the “IC50 against S. aureus” value in series [3] came to 4 µg/mL (≈ 4.61 µM). Also, in series [4], the “IC50 against S. sanguis” value worked out at 4 µg/mL (≈ 4.61 µM). In series [5], the “IC50 against C. albicans” value was 116 µg/mL (≈ 134 µM).
Turning to `NCCCC[C@H](NC(=O)OCC1c2ccccc2-c2ccccc21)C(=O)N[C@@H](Cc1c[nH]c2ccccc12)C(=O)N[C@@H](CCCCN)C(=O)N[C@H](Cc1ccc(O)cc1)C(N)=O` [(KFmoc)WKy-NH2] (Fmoc-KWK[dY]-NH2), the “HD50 (concentration necessary to lyse 50% of the cells)” value in series [1] was 368 µg/mL. The “IC50 against E. coli” value in series [2] is 39 µg/mL (≈ 46.2 µM). For the same molecule, the “IC50 against S. aureus” value in series [3] stood at 7 µg/mL (≈ 8.28 µM). Further, the “IC50 against S. sanguis” value in series [4] came to 8 µg/mL (≈ 9.47 µM). Further, the “IC50 against C. albicans” value in series [5] amounted to 144 µg/mL (≈ 170 µM).
As for `C[C@@H](NC(=O)[C@H](Cc1ccc(O)cc1)NC(=O)[C@H](Cc1c[nH]c2ccccc12)NC(=O)[C@H](CCCCN)NC(=O)OCC1c2ccccc2-c2ccccc21)C(N)=O` [(KFmoc)WYa-NH2] (Fmoc-KWY[dA]-NH2), the “HD50 (concentration necessary to lyse 50% of the cells)” value in series [1] amounted to 74 µg/mL. Moreover, in series [2], the “IC50 against E. coli” value turned out to be 87 µg/mL (≈ 110 µM). Also, the “IC50 against S. aureus” value in series [3] came out at 5 µg/mL (≈ 6.35 µM). Besides, in series [4], the “IC50 against S. sanguis” value came to 5 µg/mL (≈ 6.35 µM). In addition, the “IC50 against C. albicans” value in series [5] came to 249 µg/mL (≈ 316 µM).
For the molecule `NCCCC[C@H](NC(=O)OCC1c2ccccc2-c2ccccc21)C(=O)N[C@@H](Cc1c[nH]c2ccccc12)C(=O)N[C@@H](Cc1ccc(O)cc1)C(=O)N[C@H](Cc1c[nH]cn1)C(N)=O` [(KFmoc)WYh-NH2] (Fmoc-KWY[dH]-NH2), in series [1], the “HD50 (concentration necessary to lyse 50% of the cells)” value is 73 µg/mL. In series [2], the “IC50 against E. coli” value worked out at 40 µg/mL (≈ 46.8 µM). In addition, in series [3], the “IC50 against S. aureus” value was found to be 7 µg/mL (≈ 8.2 µM). Moreover, the “IC50 against S. sanguis” value in series [4] was determined as 8 µg/mL (≈ 9.37 µM). The “IC50 against C. albicans” value in series [5] came out at 192 µg/mL (≈ 225 µM).
The corresponding values for `NCCCC[C@H](NC(=O)OCC1c2ccccc2-c2ccccc21)C(=O)N[C@@H](Cc1c[nH]c2ccccc12)C(=O)N[C@@H](Cc1ccc(O)cc1)C(=O)N[C@H](CCCCN)C(N)=O` [(KFmoc)WYk-NH2] (Fmoc-KWY[dK]-NH2) are 62 µg/mL, 18 µg/mL (≈ 21.3 µM), 5 µg/mL (≈ 5.92 µM), 5 µg/mL (≈ 5.92 µM) and 121 µg/mL (≈ 143 µM).
The corresponding values for `NCCCC[C@H](NC(=O)OCC1c2ccccc2-c2ccccc21)C(=O)N[C@@H](Cc1c[nH]c2ccccc12)C(=O)N[C@@H](Cc1ccc(O)cc1)C(=O)N1CCC[C@@H]1C(N)=O` [(KFmoc)WYp-NH2] (Fmoc-KWY[dP]-NH2) are 76 µg/mL, 84 µg/mL (≈ 103 µM), 5 µg/mL (≈ 6.14 µM), 5 µg/mL (≈ 6.14 µM) and 165 µg/mL (≈ 203 µM).
The corresponding values for `N=C(N)NCCC[C@@H](NC(=O)[C@H](Cc1ccc(O)cc1)NC(=O)[C@H](Cc1c[nH]c2ccccc12)NC(=O)[C@H](CCCCN)NC(=O)OCC1c2ccccc2-c2ccccc21)C(N)=O` [(KFmoc)WYr-NH2] (Fmoc-KWY[dR]-NH2) are 31 µg/mL, 16 µg/mL (≈ 18.3 µM), 4 µg/mL (≈ 4.58 µM), 4 µg/mL (≈ 4.58 µM) and 109 µg/mL (≈ 125 µM).
For `NCCCC[C@H](NC(=O)OCC1c2ccccc2-c2ccccc21)C(=O)N[C@@H](Cc1c[nH]c2ccccc12)C(=O)N[C@@H](Cc1ccc(O)cc1)C(=O)N[C@H](CO)C(N)=O` [(KFmoc)WYs-NH2] (Fmoc-KWY[dS]-NH2), in series [1], the “HD50 (concentration necessary to lyse 50% of the cells)” value stood at 27 µg/mL. The “IC50 against E. coli” value in series [2] was determined as 106 µg/mL (≈ 132 µM). Besides, the “IC50 against S. aureus” value in series [3] worked out at 5 µg/mL (≈ 6.22 µM). Also, the “IC50 against S. sanguis” value in series [4] amounted to 5 µg/mL (≈ 6.22 µM). Also, in series [5], the “IC50 against C. albicans” value was determined as 353 µg/mL (≈ 439 µM).
